Measured values published in paper PMC7667534, “Calixarbutin: A Novel Calixarene-based Potential Water-soluble Anti-tyrosinase Agent with High Anti-melanoma Activity” (Iranian Journal of Pharmaceutical Research : IJPR, 2020).

Experiments:
[1] = target: Mushroom tyrosinase; experiment: DOPA-chrome assay with L-DOPA ([…]), mushroom tyrosinase […] U/mL, absorbance at […] nm; reference inhibitor measured by the authors; format: biochemical; conditions: read-out: Anti-tyrosinase activity (IC50)
[2] = target: Mushroom tyrosinase; experiment: DOPA-chrome assay with L-DOPA ([…]), mushroom tyrosinase […] U/mL, absorbance at […] nm; format: biochemical; conditions: read-out: Anti-tyrosinase activity (IC50)

`OC[C@H]1O[C@@H](Oc2ccc(O)cc2)[C@H](O)[C@@H](O)[C@@H]1O` [Arbutin] was tested, and the IC50 [1] was 168 ± 7 µM.

Work on `OC[C@H]1O[C@@H](Oc2c3cc(O)cc2Cc2cc(O)cc(c2O[C@@H]2O[C@H](CO)[C@@H](O)[C@H](O)[C@H]2O)Cc2cc(O)cc(c2O[C@@H]2O[C@H](CO)[C@@H](O)[C@H](O)[C@H]2O)Cc2cc(O)cc(c2O[C@@H]2O[C@H](CO)[C@@H](O)[C@H](O)[C@H]2O)C3)[C@H](O)[C@@H](O)[C@@H]1O` [compound 4] yielded an IC50 [2] of 26 ± 1 µM.
